Results on eleven molecules are retold here after ChEMBL document CHEMBL1201862, “PubChem BioAssay data set” (2004).

The nature of data set [1]: restored growth of temperature-sensitive Burl-1 yeast – whole organism, S. cerevisiae, Burl-1 ts mutant, luminescence, counter-screen for SUMOylation pathway inhibitor project, dose response (AID 463199). It counts as functional.
The target of data set [2] is T1, Heat shock factor protein 1 (Mus musculus, UniProt P38532).
T1 sequence (P38532 whole entry): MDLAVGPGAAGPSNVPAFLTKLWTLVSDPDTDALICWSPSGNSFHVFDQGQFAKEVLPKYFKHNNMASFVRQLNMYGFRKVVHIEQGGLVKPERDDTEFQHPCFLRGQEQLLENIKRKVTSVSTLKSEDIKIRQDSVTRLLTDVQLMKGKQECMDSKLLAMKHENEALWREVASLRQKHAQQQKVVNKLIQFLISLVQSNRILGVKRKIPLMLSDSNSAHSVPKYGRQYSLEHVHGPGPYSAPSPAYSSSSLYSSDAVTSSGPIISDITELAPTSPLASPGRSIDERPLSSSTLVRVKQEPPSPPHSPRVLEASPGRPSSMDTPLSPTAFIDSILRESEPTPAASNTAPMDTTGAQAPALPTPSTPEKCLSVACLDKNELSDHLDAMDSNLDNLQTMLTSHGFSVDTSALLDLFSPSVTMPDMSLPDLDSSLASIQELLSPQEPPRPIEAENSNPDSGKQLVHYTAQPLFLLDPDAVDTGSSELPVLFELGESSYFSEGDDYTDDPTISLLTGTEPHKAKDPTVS
The data set can be described thus: enhancement of HSF1-driven luciferase signal – cell-based, NIH3T3, luminescence, dose retest, confirmation (AID 435004).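 Note: stress induced by proteasome inhibitor MG132 added 30 min after compound; luciferase reporter driven by HSF1 response element in NIH3T3 cells; actives raise luminescence as potentiators of the MG132 stress response.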 It is filed as functional.

The target of data set [3] is T2, High affinity choline transporter 1 (Homo sapiens, UniProt Q9GZV3).
T2 sequence (Q9GZV3 whole entry): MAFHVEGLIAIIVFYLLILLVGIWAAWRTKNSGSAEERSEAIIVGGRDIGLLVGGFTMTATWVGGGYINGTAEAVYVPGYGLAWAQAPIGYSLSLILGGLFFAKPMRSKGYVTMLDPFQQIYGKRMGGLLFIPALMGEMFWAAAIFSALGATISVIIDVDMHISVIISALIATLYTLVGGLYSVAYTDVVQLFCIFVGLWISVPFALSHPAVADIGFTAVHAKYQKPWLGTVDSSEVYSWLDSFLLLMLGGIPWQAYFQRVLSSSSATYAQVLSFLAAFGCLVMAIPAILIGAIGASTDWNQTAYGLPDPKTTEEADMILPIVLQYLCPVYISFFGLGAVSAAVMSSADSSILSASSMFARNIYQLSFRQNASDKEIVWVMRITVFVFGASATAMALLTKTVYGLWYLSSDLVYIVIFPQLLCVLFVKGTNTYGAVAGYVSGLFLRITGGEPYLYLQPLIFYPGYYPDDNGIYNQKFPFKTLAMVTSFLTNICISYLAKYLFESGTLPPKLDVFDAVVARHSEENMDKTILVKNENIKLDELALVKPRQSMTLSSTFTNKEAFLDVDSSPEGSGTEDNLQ
The data set can be described thus: human choline transporter blockers, potency – cell-based, 5-point CRC, membrane potential dye, dose response (AID 504840). It counts as functional.

For data set [4], the target named is T2, High affinity choline transporter 1. The data set can be described thus: human choline transporter blockers, potency – cell-based, 10-point CRC, membrane potential dye, dose response (AID 588401).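 Note: membrane potential dye fluorescence of choline-evoked depolarization via CHT.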 It counts as functional.
For data set [5], the target named is Heat shock protein HSP 90-alpha (Homo sapiens, UniProt P07900). It is filed as functional, organism-based.
Data set [6] relates to Vero. The data set can be described thus: cells. The settings on record: Chlorocebus sabaeus. It counts as functional, cell-based.
Data set [7] deals with Vero. The data set can be described thus: cells. It is filed as functional. The conditions noted are these: Chlorocebus sabaeus.
Data set [8] concerns P388/ADR. The data set can be described thus: cells. It is filed as functional. The conditions noted are these: Mus musculus.
For data set [9], the system named is SN12K1. The data set can be described thus: cells. It is filed as functional. The conditions noted are these: Homo sapiens.
Data set [10] has as its system P388. The data set can be described thus: cells. It is filed as functional. The conditions noted are these: Mus musculus.
For data set [11], the target named is SUMO-activating enzyme (Homo sapiens, UniProt Q9UBT2). The data set can be described thus: blockers of UBC9-mediated SUMO conjugation – biochemical, AlphaScreen, SUMOylation inhibitor project, confirmation (AID 2018). It is filed as functional. A general note: In Alpha technology, singlet oxygen from a donor bead excites a nearby acceptor bead.
Chain of SUMO-activating enzyme (Q9UBE0 whole entry): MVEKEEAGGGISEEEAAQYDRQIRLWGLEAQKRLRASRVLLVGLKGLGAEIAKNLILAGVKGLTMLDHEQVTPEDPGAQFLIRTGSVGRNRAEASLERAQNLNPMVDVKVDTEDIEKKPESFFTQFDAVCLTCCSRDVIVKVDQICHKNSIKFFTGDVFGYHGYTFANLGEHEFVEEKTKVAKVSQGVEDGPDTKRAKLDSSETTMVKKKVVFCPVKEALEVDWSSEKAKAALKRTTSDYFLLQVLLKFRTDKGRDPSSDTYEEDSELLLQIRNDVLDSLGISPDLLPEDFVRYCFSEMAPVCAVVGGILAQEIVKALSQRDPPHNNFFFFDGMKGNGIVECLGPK
Chain of SUMO-activating enzyme (Q9UBT2 whole entry): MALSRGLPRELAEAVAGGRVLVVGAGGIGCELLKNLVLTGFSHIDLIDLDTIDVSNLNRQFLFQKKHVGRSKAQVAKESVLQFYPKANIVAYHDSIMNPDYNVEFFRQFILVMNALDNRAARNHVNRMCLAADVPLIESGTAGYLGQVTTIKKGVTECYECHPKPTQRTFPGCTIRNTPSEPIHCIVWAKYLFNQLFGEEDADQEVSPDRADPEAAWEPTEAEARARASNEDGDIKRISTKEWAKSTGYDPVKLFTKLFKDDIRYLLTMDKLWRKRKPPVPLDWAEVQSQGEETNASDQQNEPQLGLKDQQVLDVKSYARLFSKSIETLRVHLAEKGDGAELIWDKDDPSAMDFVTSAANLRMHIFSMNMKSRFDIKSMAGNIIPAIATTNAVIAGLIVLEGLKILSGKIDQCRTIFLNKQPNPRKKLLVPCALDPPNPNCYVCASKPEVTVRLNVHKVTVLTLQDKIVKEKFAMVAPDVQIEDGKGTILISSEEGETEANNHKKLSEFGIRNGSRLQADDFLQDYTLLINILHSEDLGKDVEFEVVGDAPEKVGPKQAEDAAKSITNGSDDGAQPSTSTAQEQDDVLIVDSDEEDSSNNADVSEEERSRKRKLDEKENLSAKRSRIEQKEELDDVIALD
Data set [12] addresses T3, Calpain-2 catalytic subunit (Sus scrofa, UniProt P43367).
T3 sequence (P43367 whole entry): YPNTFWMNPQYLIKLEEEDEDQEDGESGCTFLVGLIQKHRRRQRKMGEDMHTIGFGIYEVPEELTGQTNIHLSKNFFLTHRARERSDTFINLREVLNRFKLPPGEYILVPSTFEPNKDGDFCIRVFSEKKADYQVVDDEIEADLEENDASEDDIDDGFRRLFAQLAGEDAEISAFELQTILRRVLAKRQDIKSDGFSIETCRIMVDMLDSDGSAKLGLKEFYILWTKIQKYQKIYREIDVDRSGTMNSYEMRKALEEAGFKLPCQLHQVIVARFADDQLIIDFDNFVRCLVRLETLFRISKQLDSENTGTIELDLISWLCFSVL
The data set can be described thus: m-calpain protease blockers, concentration series – biochemical, fluorogenic peptide substrate, dose response (AID 1420). It is filed as functional.

Data set [13] has as its target T4, Cytochrome P450 1A2 (Homo sapiens, UniProt P05177).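 Note: PubChem cytochrome P450 panel assay, CYP1A2 panel member.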
T4 sequence (P05177 whole entry): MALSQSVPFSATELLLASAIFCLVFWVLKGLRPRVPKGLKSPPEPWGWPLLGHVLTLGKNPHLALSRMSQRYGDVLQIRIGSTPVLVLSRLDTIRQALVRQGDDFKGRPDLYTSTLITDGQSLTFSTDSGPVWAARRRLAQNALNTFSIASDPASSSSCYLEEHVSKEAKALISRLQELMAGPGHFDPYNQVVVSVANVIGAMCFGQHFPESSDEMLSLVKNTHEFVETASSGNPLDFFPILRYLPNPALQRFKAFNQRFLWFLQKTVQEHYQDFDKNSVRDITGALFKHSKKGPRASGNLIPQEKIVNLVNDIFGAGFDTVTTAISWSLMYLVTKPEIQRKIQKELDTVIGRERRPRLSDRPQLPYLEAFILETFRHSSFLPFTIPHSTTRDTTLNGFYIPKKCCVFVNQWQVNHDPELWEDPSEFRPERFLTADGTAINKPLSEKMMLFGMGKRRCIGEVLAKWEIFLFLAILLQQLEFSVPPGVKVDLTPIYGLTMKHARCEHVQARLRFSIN

In data set [14] the target is T5, Cytochrome P450 3A4 (Homo sapiens, UniProt P08684).
T5 sequence (P08684 whole entry): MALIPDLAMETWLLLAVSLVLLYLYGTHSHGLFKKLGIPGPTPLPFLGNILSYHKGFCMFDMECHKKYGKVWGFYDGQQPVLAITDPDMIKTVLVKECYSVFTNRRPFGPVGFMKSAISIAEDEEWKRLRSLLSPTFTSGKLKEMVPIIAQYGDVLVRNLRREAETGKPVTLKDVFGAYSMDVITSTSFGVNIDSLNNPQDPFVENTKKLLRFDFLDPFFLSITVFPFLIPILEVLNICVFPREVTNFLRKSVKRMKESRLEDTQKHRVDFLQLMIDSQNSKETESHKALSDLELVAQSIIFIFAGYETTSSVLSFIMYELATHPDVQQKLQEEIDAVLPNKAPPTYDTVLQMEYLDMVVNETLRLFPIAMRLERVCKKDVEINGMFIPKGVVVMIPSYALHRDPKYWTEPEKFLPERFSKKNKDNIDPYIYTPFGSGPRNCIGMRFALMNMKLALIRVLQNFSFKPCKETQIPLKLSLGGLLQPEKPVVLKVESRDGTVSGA
Data set [15] deals with Cytochrome P450 2C9 (Homo sapiens, UniProt P11712).
Chain of Cytochrome P450 2C9 (P11712 whole entry): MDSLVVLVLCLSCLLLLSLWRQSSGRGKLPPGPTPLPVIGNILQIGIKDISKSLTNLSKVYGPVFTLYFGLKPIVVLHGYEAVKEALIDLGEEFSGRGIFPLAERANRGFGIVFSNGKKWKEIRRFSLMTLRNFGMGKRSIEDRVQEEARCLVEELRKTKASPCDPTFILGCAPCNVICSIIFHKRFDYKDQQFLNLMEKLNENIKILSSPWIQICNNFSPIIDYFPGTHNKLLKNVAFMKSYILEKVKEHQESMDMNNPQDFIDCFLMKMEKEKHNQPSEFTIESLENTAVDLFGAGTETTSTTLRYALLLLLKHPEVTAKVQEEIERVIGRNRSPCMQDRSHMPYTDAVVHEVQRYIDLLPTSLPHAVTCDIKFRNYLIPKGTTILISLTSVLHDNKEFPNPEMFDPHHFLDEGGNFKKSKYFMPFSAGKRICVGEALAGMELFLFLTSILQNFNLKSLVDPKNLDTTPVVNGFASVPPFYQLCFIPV
The target in data set [16] is T5, Cytochrome P450 3A4. The conditions noted are these: Potency.

Calls of active or inactive are those of the source. Where only a bound is given, the exact number is not on record here.

`CCc1nnc(NC(=O)CSc2nc3c(cc2C#N)CCCC3)s1`: the AC50 in [1] is 58.2 µM (active).
With `O=C(O)CC1=C(Nc2ccccc2)C(=O)N(c2ccccc2)C1c1ccc(Cl)cc1` (stereo unspecified), the EC50 in data set [2] was > 260 µM (inactive). Also, the half-maximal inhibitory concentration (IC50) in data set [3] is 8.1 µM (active); in [4] it was 2.7 µM (active).
With `O=C(NCCN1CCOCC1)Nc1ccc(Cl)cc1Cl`, in data set [1], the AC50 is 68.1 µM (active).
`Cc1ccc(S(=O)(=O)N(C(=O)c2ccncc2)c2ccc(OC(=O)c3ccncc3)cc2)c(C)c1`: the AC50 in data set [5] is 1.72 µM (active).
Consider `COc1cccc(-n2c(CN3CCN(C)CC3)nc3ccc([N+](=O)[O-])cc3c2=O)c1`, for which, in [6], the IC50 is 14.7 µM (active). Further, the CC50 in [7] is > 25 µM (active).
For `CCCCn1c(N)c(N(CC(C)C)C(=O)CSCC(=O)Nc2cccc(C)c2)c(=O)[nH]c1=O`, in [1], the AC50 was 54.1 µM (active).
Turning to `CCOC(=O)c1cc(C(=O)NC(C)c2ccccc2)c(O)nc1C` (stereo unspecified), the IC50 in data set [3] was 0.798 µM (active); in data set [4], 0.34 µM (active).
As to `O=NN(CCCl)C(=O)N[C@H]1CC[C@@H](CC(=O)O)CC1`, the GI50 in data set [8] is 19.9 µM (inactive); in data set [9], > 100 µM (inactive); in [10], 12.9 µM (inactive).
The matching figures for `C=C1CC2CC[C@@]34C[C@@H]5O[C@@H]6C(O[C@H]7CC[C@H](CC(=O)OC8[C@@H](C)C9OC%10C[C@]%11(C[C@@H]%12O[C@@]%13(C[C@@H](C)[C@@H]%12O%11)C[C@H](C)[C@@H]%11OC%12CC(C(O)CO)OC%12C[C@@H]%11O%13)OC%10CC9O[C@H]8C[C@H]8O[C@@H](CC[C@@H]1O2)C[C@@H](C)C8=C)O[C@@H]7[C@@H]6O3)C5O4` (stereo partly specified): 0.00416 µM (active), 0.000148 µM (active) and 0.000148 µM (active).
As for `Cc1ccccc1NC(=O)c1ccc(N/N=C/c2ccccc2O)c([N+](=O)[O-])c1`, the IC50 in [11] was 67.3 µM (active); in data set [12], 18.9 µM (not active). In addition, the results for the concentration at half-maximal activity (AC50) in data set [13], in data set [14] and in data set [15] were 14.1 µM (inconclusive), 4.47 µM (inconclusive) and “inconclusive”, respectively.
Take `CC1OC(=O)C(C(C)C)NC(=O)C(C(C)C)OC(=O)C(C(C)C)NC(=O)C(C)OC(=O)C(C(C)C)NC(=O)C(C(C)C)OC(=O)C(C(C)C)NC(=O)C(C)OC(=O)C(C(C)C)NC(=O)C(C(C)C)OC(=O)C(C(C)C)NC1=O` (stereo unspecified): the values for the concentration for 50% growth inhibition (GI50) in data set [8], in data set [9] and in data set [10] were 0.00396 µM (active), 0.00281 µM (active) and 0.0025 µM (active), respectively. Further, the concentration at half-maximal activity (AC50) in data set [16] was 12.6 µM (inconclusive).

One may read the AC50 as the midpoint of the concentration-response curve, whichever way the signal moves. By EC50 is commonly meant the concentration giving half of the maximal effect. For orientation: IC50 means the concentration that gives 50% inhibition. In general, CC50 refers to the concentration that lowers cell viability or growth by half. Broadly, the GI50 is the concentration giving 50% growth inhibition.
